We go through one substance from US7029878B2, “Melanin concentrating hormone receptor chimeric and fusion proteins” (Merck & Co., Inc., priority 2000, dated 2006).

Assay [1] has as its target T1, HuLong/mMCH1R-1-EGFP (human long form/mouse species chimeric MCH1R-1-EGFP) (Homo sapiens, UniProt Q99705, A336T/R230K/V159M).
T1 construct: ID; NO; 14 (human long form/mouse species chimeric MCH1R-linker-EGFP); 12 amino acid linker […]; expressed in transfected cells; host or cells: CHO (transient) and HEK293 Aequorin (transient)
The assay is described as follows: cAMP production (FlashPlate), transiently transfected CHO cells stimulated with human MCH. The format is cell-based. Particulars: HuLong/mMCH1R-1-EGFP vs wild-type human MCH1R long form; transient CHO. The method, then: Both HEK293 Aequorin (National Institutes of Health) and CHO mammalian cell lines were transiently transfected with the various MCH1R/GFP variant fusion constructs, as well as the appropriate control constructs. Transfection was performed using Lipofectamine 2000 (Gibco BRL) per the manufacturer recommended protocol. […] Aequorin bioluminescence is a representative measure of intracellular Ca^2+ mobilization. cAMP production was measured with the Adenylyl Cyclase Activation FlashPlate Assay (NEN Life Science Products, Inc.).

The test system of assay [2] is mMCH-1R-EGFP. The assay is described as follows: cAMP flashplate assay of stable CHO cell clones. The format is cell-based, mouse. Particulars: human MCH, 15 minutes at 37° C., 10 μM forskolin; individual stable CHO clones; FIG. 2. The text has this:
FIG. 2 illustrates a cAMP flashplate assay of CHO cell clones stably expressing mMCH-1R-EGFP. […] Cells were then lysed and assayed for bound [^125I]cAMP.
(§1) Wild-type CHO cells were transfected using SuperFect (Qiag.en) and either mouse MCH-1R-EGFP or human short/mouse species chimeric MCH-1R-EGFP. Forty-eight hours after transfection, transfected cells were subjected to positive selection for approximately ten days in media containing G418. Following selection, MCH-1R-EGFP expressing CHO cells were bulk sorted by Fluorescence Assisted Cell Sorting (FACS) for one or two rounds on the basis of fluorescence intensity to increase the population of cells expressing EGFP. Following bulk sorts, individual clones of varying fluorescence intensities were isolated by FACS and expanded.
The functional activity of these clones was evaluated with the cAMP Flashplate Assay (FIGS. 2 and 3).

For assay [3], the system named is mouse MCH-1R-EGFP. The assay is described as follows: SPA-based Binding Assay, CHO cell membranes, [125I]Phe13Tyr19-MCH. Particulars: displacement of [125I]Phe13Tyr19-MCH, stable CHO cell membranes.
Text: as §1
Fluorometric Microvolume Assay Technology (FMAT) was initially employed to screen a large number of stable clones by whole cell binding with a fluorescently labeled MCH derivative (SymJz-MCH, PE Biosystems) to identify those clones with good specific binding windows.
In general terms: In a radioligand displacement assay an active substance lowers the binding of a labelled ligand.

Several values for one entry are separate records, joined by “and”; a condition that tells them apart may be missing. Equal values may be shown once.

One may read the EC50 as the concentration at which the effect is half-maximal. For the substance human MCH, the “EC50 fold higher than that of corresponding wild-type control” value in assay [1] is “approximately 7.5 fold”. Besides, in assay [2], the EC50 is 111 pM and 126 pM and 129 pM and 230 pM. Further, the “IC50 with MCH compared with wild-type human short isoform” value in assay [3] is given as “indistinguishable”.
